One molecule from patent US10561614B2, “Tenofovir granules” (STEERLIFE INDIA PRIVATE LIMITED, priority 2017, dated 2020) can be followed below.

This data set can be described thus: Organic impurities of TDF granules by HPLC (USP Pending Monograph procedure 1), before and after twin screw granulation. It counts as physicochemical. The note with it: initial, no storage. How it is done: The test of organic impurities of Tenofovir Disoproxil Fumarate granules carried out by HPLC (Make-Agilent 1260 Infinity series).
The Tenofovir Disoproxil Fumarate granules sample was analyzed for organic impurities as per method based on Organic impurities, procedure 1 of USP Pending Monographs of Tenofovir Disoproxil Fumarate v.1 Authorized Sep. 1, 2011.
The standard, Tenofovir Disoproxil Fumarate (TDF) was prepared in solution A. concentration 0.502 μg/mL in solution. The sample i.e., TDF granules of the present invention was prepared in solution A, concentration 520.05 μg/mL.
The standard and sample solution was injected in chromatographic system and following impurity results are reported.
The test of organic impurities of Tenofovir Disoproxil Fumarate granules carried out by HPLC (Agilent 1260 Infinity series).
The Tenofovir Disoproxil Fumarate granules sample were analyzed for organic impurities as per Organic impurities, procedure 1 of USP Pending Monographs of Tenofovir Disoproxil Fumarate v.1 Authorized Sep. 1, 2011.
The standard [Tenofovir Disoproxil Fumarate (TDF)] was prepared in solution A. concentration 0.502 μg/mL in solution.
The sample [TDF granules of the present invention] was prepared in solution A, concentration 520.05 μg/mL.

Structures are written as SMILES.

For `CC(C)OC(=O)OCOP(=O)(CO[C@H](C)Cn1cnc2c(N)ncnc21)OCOC(=O)OC(C)C.O=C(O)/C=C/C(=O)O` [Unprocessed TDF API, 9-[(R)-2-[[bis[[(isopropoxycarbonyl)oxy]-methoxy]phosphinyl]methoxy]propyl]adenine fumarate (1:1)], the “(R)-9-(2-Phosphonomethoxypropyl)adenine impurity” value is “BDL”, the Adenine impurity result is “Not detected”, the “Any individual unspecified impurity” value was found to be 0.02% and the “Tenofovir disoproxil carbamate impurity” value is “Not detected”. The “Tenofovir disoproxil dimer impurity” value came out at 0.04%, the “Tenofovir disoproxil ethyl ester impurity” value turned out to be 0.03%, the “Tenofovir isopropyl isoproxil impurity” value is recorded as 0.17% and the “Tenofovir isoproxil monoester impurity” value is recorded as 0.48%. The Total impurities was 0.84%. Further, for the setting “listed as Unprocessed (API)”, the Adenine impurity entry was “BDL”, the “Any individual unspecified impurity” value worked out at 0.015%, the “Tenofovir isopropyl isoproxil impurity” value is 0.118% and the “Tenofovir isoproxil monoester impurity” value stood at 0.321%. The molecule further came in with a Total impurities (listed as Unprocessed (API)) of 0.490%.
